Experimental data taken from article PMC7753147, “High-throughput determination of protein affinities using unmodified peptide libraries in nanomolar scale” (iScience, 2020).
Where a SMILES comes first, the peptide text is derived from it.

Experiments:
gephE [1] = target: T1, gephE (Rattus norvegicus, UniProt Q03555); test: TRIC displacement 12-point dose response against gephE-NN1D-Alexa647 complex; assay type: binding
T1 construct: gephE (residues 318-736) was generated; made in house
T1 sequence (Q03555 350-768): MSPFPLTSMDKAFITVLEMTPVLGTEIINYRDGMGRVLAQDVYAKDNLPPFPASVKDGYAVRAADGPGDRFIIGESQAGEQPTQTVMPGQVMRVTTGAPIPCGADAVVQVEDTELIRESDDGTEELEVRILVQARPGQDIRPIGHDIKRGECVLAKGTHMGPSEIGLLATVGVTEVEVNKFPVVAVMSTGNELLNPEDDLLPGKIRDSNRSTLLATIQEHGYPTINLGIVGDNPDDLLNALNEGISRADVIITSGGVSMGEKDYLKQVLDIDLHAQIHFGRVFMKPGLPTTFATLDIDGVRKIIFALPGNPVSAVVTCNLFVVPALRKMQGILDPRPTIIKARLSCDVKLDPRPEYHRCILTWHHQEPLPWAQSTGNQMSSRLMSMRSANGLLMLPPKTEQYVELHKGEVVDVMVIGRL

native geph = test: µSPOT peptide microarray binding assay with native geph from mouse brain lysate
Procedure: Preparation of Mouse Tissue Lysates
Whole mouse brains were obtained from C57BL/6J mice at >4 weeks of age and 80 immediately flash frozen in liquid N2. Tissue of mRFP-gephyrin knock-in animals of 1 year of age (provided by Christian Specht, IBENS, Paris) was processed the same way. Before lysis, whole mouse brains were weighted and cut into four pieces along the coronal and sagittal axis. For preparation of one lysate, two diagonally opposite pieces were transferred into a 1.5 mL reaction tube (Sarsted). Lysis was carried out on ice in 400 µL RIPA lysis buffer (150 mM 85 NaCl, 50 mM Tris-HCl (pH=8), 1% Nonident P-40 substitute, 0.5% DOC, 0.1% SDS (all v/v)), to which Ethylenediaminetetraacetic acid (5 mM end concentration) and 1 mini tablet of ROCHE complete protease inhibitor per 10 mL was added immediately before use, by hand crushing the brain material with a hand pestle in a 1.5 mL reaction tube. Lysis was completed by 1 min sonification on ice with a Sartorius Labsonic M Sonificator at 20% amplitude with 90 care to avoid heating the suspensions. Finally, Lysates were centrifuged for 15 min at 17,200×g and 4 °C. The SN was subsequently collected, transferred to a new 1.5 mL reaction tube, flash frozen in liquid N2 and stored at -80 °C until use.
95 µSPOT slides were blocked by incubation with 2.5 mL 2% (w/v) IGG free bovine serum

gephE [2] = test: µSPOT peptide microarray binding assay with recombinant gephE
FL-geph = test: µSPOT peptide microarray binding assay with full-length geph
[3] = µSPOT full positional scan of GlyRβ 15-mer DLRSNDFSIVGSLPR, native geph, intensity normalised to wild-type sequence (= 1)
[4] = µSPOT full positional scan of GlyRβ 15-mer DLRSNDFSIVGSLPR, intensity normalised to wild-type sequence (= 1)
[5] = µSPOT peptide microarray, GlyRβ full positional scan, native geph from mouse brain lysate, intensity normalised to wild-type sequence DLRSNDFSIVGSLPR (=1)
[6] = µSPOT peptide microarray, GlyRβ full positional scan, recombinant gephE, intensity normalised to wild-type sequence DLRSNDFSIVGSLPR (=1)
[7] = µSPOT peptide microarray, GlyRβ full positional scan, intensity normalised to wild-type sequence DLRSNDFSIVGSLPR (=1)

Compound	Ki (gephE [1]) [µM]	Native geph Binding Intensity [norm.] (native geph; [3])	gephE Binding Intensity [norm.] (gephE [2]; [4])	Fl-geph Binding Intensity [norm.] (FL-geph; [4])	Native geph Binding Intensity [norm.] (native geph; [5])	gephE Binding Intensity [norm.] (gephE [2]; [6])	Fl-geph Binding Intensity [norm.] (FL-geph; [7])
CC[C@H](C)[C@H](NC(=O)[C@H](CO)NC(=O)[C@H](Cc1ccc(O)cc1)NC(=O)[C@H](CC(=O)O)NC(=O)[C@H](CC(N)=O)NC(=O)[C@H](CO)NC(=O)[C@H](CCCNC(=N)N)NC(=O)[C@H](CC(C)C)NC(=O)[C@@H](N)CC(=O)O)C(=O)N[C@H](C(=O)NCC(=O)N[C@@H](CO)C(=O)N[C@@H](CC(C)C)C(=O)N1CCC[C@H]1C(=O)N[C@@H](CCCNC(=N)N)C(N)=O)C(C)C [GlyRβ_Full_Positional_Scan_129] (H-DLRSNDYSIVGSLPR-NH2)	185						
CC[C@H](C)[C@H](NC(=O)CNC(=O)[C@H](Cc1ccccc1)NC(=O)[C@H](CC(=O)O)NC(=O)[C@H](CC(N)=O)NC(=O)[C@H](CO)NC(=O)[C@H](CCCNC(=N)N)NC(=O)[C@H](CC(C)C)NC(=O)[C@@H](N)CC(=O)O)C(=O)N[C@H](C(=O)NCC(=O)N[C@@H](CO)C(=O)N[C@@H](CC(C)C)C(=O)N1CCC[C@H]1C(=O)N[C@@H](CCCNC(=N)N)C(N)=O)C(C)C [GlyRβ_Full_Positional_Scan_142] (H-DLRSNDFGIVGSLPR-NH2)	42.4						
DLRSNDFSIVGSWPR [GlyRβ_Full_Positional_Scan_248]		0.52	0.7	0.93			
DLRSNDFSIKGSLPR [GlyRβ_Full_Positional_Scan_194, GlyR β 414-428 variant V423K]					0.16	0.5	0.63
DLRSNCFSIVGSLPR [GlyRβ_Full_Positional_Scan_117]					0.64	0.81	0.8
DLRSNDFSGVGSLPR [GlyRβ_Full_Positional_Scan_162, GlyR β 414-428 variant I422G]					0.34	0.56	0.53
DLRSIDFSIVGSLPR [GlyRβ_Full_Positional_Scan_083]					0.55	0.92	0.81
DLRSNDFSNVGSLPR [GlyRβ_Full_Positional_Scan_179, GlyR β 414-428 variant I422N]					0.42	0.6	0.57
DLRSNDFSIVGMLPR [GlyRβ_Full_Positional_Scan_238]		0.89	0.77	0.88			
DLRKNDFSIVGSLPR [GlyRβ_Full_Positional_Scan_074]					1.05	0.92	0.94
DLKSNDFSIVGSLPR [GlyRβ_Full_Positional_Scan_054]					1.21	1.01	1.24
DLRSNDRSIVGSLPR [GlyRβ_Full_Positional_Scan_132, GlyR β 414-428 variant F420R]					0.41	0.63	0.77
DLRSNDFSIVGSFPR [GlyRβ_Full_Positional_Scan_247]		0.96	0.9	1.16			
DLRSNDFSIVGSHPR [GlyRβ_Full_Positional_Scan_253]		1.16	1.08	1.02			
DLRSADFSIVGSLPR [GlyRβ_Full_Positional_Scan_081]					0.76	0.93	0.9
DLRSNDFSIVGSLPT [GlyRβ_Full_Positional_Scan_296]		1.56	0.87	1.37			
DLRSNDFSIMGSLPR [GlyRβ_Full_Positional_Scan_198, GlyR β 414-428 variant V423M]					0.38	0.44	0.86
DLRVNDFSIVGSLPR [GlyRβ_Full_Positional_Scan_066]					0.98	0.91	0.9
DLHSNDFSIVGSLPR [GlyRβ_Full_Positional_Scan_053]					1.37	1.01	1.21

Compound	Ki (gephE [1]) [µM]	Native geph Binding Intensity [norm.] (native geph; [3])	gephE Binding Intensity [norm.] (gephE [2]; [4])	Fl-geph Binding Intensity [norm.] (FL-geph; [4])	Native geph Binding Intensity [norm.] (native geph; [5])	gephE Binding Intensity [norm.] (gephE [2]; [6])	Fl-geph Binding Intensity [norm.] (FL-geph; [7])
DLRSNDFSIVGSVPR [GlyRβ_Full_Positional_Scan_246]		0.82	0.92	1.06			
DLRSNDASIVGSLPR [GlyRβ_Full_Positional_Scan_121, GlyR β 414-428 variant F420A]					0.32	0.48	0.53
DLRSNDFSIVGSSPR [GlyRβ_Full_Positional_Scan_255]		0.85	0.84	1.08			
DLRSNDFSIRGSLPR [GlyRβ_Full_Positional_Scan_192, GlyR β 414-428 variant V423R]					0.21	0.6	0.73
DLRSNDFMIVGSLPR [GlyRβ_Full_Positional_Scan_158, GlyR β 414-428 variant S421M]					0.54	0.73	0.88
DLRSNDFSIVGDLPR [GlyRβ_Full_Positional_Scan_230]		0.45	0.52	0.77			
DLRSNDFSIVGSLGR [GlyRβ_Full_Positional_Scan_262]		0.44	0.6	0.82			
DLRSGDFSIVGSLPR [GlyRβ_Full_Positional_Scan_082]					0.77	0.9	0.9
DLRSTDFSIVGSLPR [GlyRβ_Full_Positional_Scan_096]					0.73	1.06	0.78
DLRSNDFNIVGSLPR [GlyRβ_Full_Positional_Scan_159, GlyR β 414-428 variant S421N]					0.64	0.72	1.03
DLRSNDFSIVWSLPR [GlyRβ_Full_Positional_Scan_208, GlyR β 414-428 variant G424W]					0.16	0.32	0.35
DLRSNIFSIVGSLPR [GlyRβ_Full_Positional_Scan_103]					0.35	0.79	0.97
DLRSNNFSIVGSLPR [GlyRβ_Full_Positional_Scan_119]					0.57	0.89	0.69
DQRSNDFSIVGSLPR [GlyRβ_Full_Positional_Scan_040]					1.16	0.96	0.92
DLRSNDFSITGSLPR [GlyRβ_Full_Positional_Scan_196, GlyR β 414-428 variant V423T]					0.59	0.66	0.97
DLRSNDFSIVGHLPR [GlyRβ_Full_Positional_Scan_233]		0.9	0.8	1.01			
DLRSLDFSIVGSLPR [GlyRβ_Full_Positional_Scan_084]					0.69	0.92	0.86
DLRSNDFSIVFSLPR [GlyRβ_Full_Positional_Scan_207, GlyR β 414-428 variant G424F]					0.22	0.43	0.54
